For assay [1] the following is noted: literature studies; cited from earlier work.
Assay [2] can be described thus: Trial of phentermine in combination with topiramate to effect weight loss in patients. It counts as in vivo, human. The following applies: follow-up 2-9 weeks. The method, then:
Patients as part of the following trial were treated according to the following dosage regimen. Patients took phentermine at a dose of 15 mg daily throughout the weight loss program, before breakfast. For the first 6 days, patients took one 25 mg tablet of topiramate before supper. For the next 6 days, patients took two 25 mg tablets of topiramate before supper. For the next 7 days (days 13–19), patients took 100 mg before supper daily using 4–25 mg tablets of topiramate daily. For days 20–26, patients took 150 mg of topiramate daily consisting of one-half of a 200 mg tablet and two 25-mg mg tablets of topiramate. From that point on, unless instructed otherwise by the physician, patients continued to take one 200 mg topiramate tablet daily before supper and continued the 15 mg phentermine daily in the morning. Patients were advised to drink at least eight (8) full glasses of water daily to reduce the risk of kidney stones which may result from taking topiramate.
Patients were advised that while the effect of phentermine is fairly rapid, the effect of topiramate is slower in onset. The weight reduction effect of topiramate will continue for as long as 18 months on the medication. That is, the patient can expect to continue gradual weight loss for up to 18 months on the medication. Of course, weight loss is maximal if the patient follows diet and/or exercise programs. The weight loss should exceed 15% of the patients starting weight. Thus, if the patient weighs about 200 pounds as of the start date, he/she might expect to lose at least 30 pounds in a period of 12–18 months. The following patient data has been collected.
A total of thirteen patients were treated for 1–9 months with phentermine (15 mg daily) in the morning and up to 400 mg of topiramate (median dose 200 mg), in the evening. […] Along with taking medication, patients were instructed to walk at least 30 minutes three times per week and to follow a low fat diet. No patients had taken diet medication for at least 3 months prior to treatment. Average baseline BMI was 32.5 (range 26–48).

Assay [3] can be described thus: Case history of patient(B), topiramate added to phentermine. It counts as in vivo, human. The following applies: on phentermine after Redux withdrawal. How it is done: They once weighed as much as 395 pounds. When Redux was still on the mark in the United States, they were treated with a combination of diet, exercise, Redux and phentermine. Their lowest weight attained was 285 pounds. When Redux was withdrawn from the market, they remained on phentermine but gained weight back to 295–300 pounds. When topiramate was added to their regimen, they managed to lose 25 pounds and is currently at 271 pounds, their lowest weight since they were […].

In the case of `CC(C)CC(N(C)C)C1(c2ccc(Cl)cc2)CCC1` (centres unmarked) [sibutramine], in assay [1], the “weight loss, drug compared with placebo” value is on record as “about 5 % of body weight”.

Turning to `CCN[C@@H](C)Cc1cccc(C(F)(F)F)c1` [dexfenfluramine], in assay [1], the “weight loss, drug compared with placebo” value is given as “about 5 % of body weight”.

Take `CC(C)CC(N(C)C)C1(c2ccc(Cl)cc2)CCC1.Cl` (centres unmarked) [Meridia]: in assay [2] (individual patients (one per line), phentermine 15 mg daily, topiramate titrated 25 to 200 mg daily), the “Follow-Up Weight (lbs)” value was 177 lbs. In addition, in assay [2] (individual patients), the “Follow-Up Blood Pressure” value is on record as 120/80. The “% Weight Loss” value in assay [2] (individual patients, versus start weight) is reported as 2.7%.

For `CCCCCCCCCCC[C@@H](C[C@@H]1OC(=O)[C@H]1CCCCCC)OC(=O)[C@H](CC(C)C)NC=O` [orlistat], the “weight loss, drug compared with placebo” value in assay [1] was “about 5 % of body weight”.

In the case of `CC(C)(N)Cc1ccccc1` [phentermine], in assay [3], the weight regained was 295–300 pounds. In assay [1], the “weight loss, drug compared with placebo” value is recorded as “about 5 % of body weight”.

Values taken from US7056890B2, “Combination therapy for effecting weight loss and treating obesity” (VIVUS, Inc., priority 1999, dated 2006).
